Calls of active or inactive are those of the source. The calls are words filed in the database; no cut-off is given here.
Tests used:
[1] = test system: SOX2 promoter DNA; assay: Binding affinity to SOX2 promoter 5'-CTTTGTT-3' DNA in mouse Hepa1 cells assessed as reduction in SOX2 mRNA expression incubated for 48 hrs by qRT-PCR analysis; format: cell-based
[2] = test system: SOX2 promoter DNA; assay: Binding affinity to SOX2 promoter 5'-CTTTGTT-3' DNA in human SW620 cells assessed as down regulation of stemness associated PTCH1 mRNA expression at 2 uM incubated for 48 hrs by qRT-PCR analysis; format: cell-based; conditions: SW-620
[3] = test system: SOX2 promoter DNA; assay: Binding affinity to SOX2 promoter 5'-CTTTGTT-3' DNA in human SW620 cells assessed as down regulation of VIM mRNA expression at 2 uM incubated for 48 hrs by qRT-PCR analysis; format: cell-based; conditions: SW-620
[4] = test system: SOX2 promoter DNA; assay: Binding affinity to SOX2 promoter 5'-CTTTGTT-3' DNA in human SW620 cells assessed as down regulation of stemness associated KLF4 mRNA expression at 2 uM incubated for 48 hrs by qRT-PCR analysis; format: cell-based; conditions: SW-620
[5] = test system: MCF7; assay: Cell cycle arrest in human MCF7 cells assessed as reduction in accumulation at G2/M phase at 2 uM to 5 uM after 48 hrs by propidium iodide staining based flow cytometry analysis; format: functional
[6] = test system: SOX2 promoter DNA; assay: Binding affinity to SOX2 promoter 5'-CTTTGTT-3' DNA in human SW620 cells assessed as downregulation DVL2 mRNA expression incubated for 48 hrs by qRT-PCR analysis; format: cell-based; conditions: SW-620
[7] = test system: SW-620; assay: Up regulation of PUMA mRNA expression in human SW620 cells incubated for 48 hrs by qRT-PCR analysis; format: functional, cell-based
[8] = test system: SOX2 promoter DNA; assay: Binding affinity to SOX2 promoter 5'-CTTTGTT-3' DNA in human SW620 cells assessed as down regulation of ZEB2 mRNA expression at 2 uM incubated for 48 hrs by qRT-PCR analysis; format: cell-based; conditions: SW-620
[9] = test system: SW-620; assay: Up regulation of FAS mRNA expression in human SW620 cells incubated for 48 hrs by qRT-PCR analysis; format: functional, cell-based
[10] = test system: U2OS; assay: Antiproliferative activity against human U2OS cells assessed as inhibition of cell proliferation incubated for 48 hrs by [3H]thymidine incorporation based scintillation counting method; format: functional
[11] = test system: SOX2 promoter DNA; assay: Binding affinity to SOX2 promoter 5'-CTTTGTT-3' DNA in human SW620 cells assessed as down regulation of JAG1 mRNA expression at 2 uM incubated for 48 hrs by qRT-PCR analysis; format: cell-based; conditions: SW-620
[12] = test system: SOX2 promoter DNA; assay: Binding affinity to SOX2 promoter 5'-CTTTGTT-3' DNA in mouse GL261 cells assessed as reduction in SOX2 mRNA expression incubated for 48 hrs by qRT-PCR analysis; format: cell-based
[13] = test system: SOX2 promoter DNA; assay: Binding affinity to SOX2 promoter 5'-CTTTGTT-3' DNA in human SW620 cells assessed as down regulation of GRB2 mRNA expression incubated for 48 hrs by qRT-PCR analysis; format: cell-based; conditions: SW-620
[14] = test system: MKN-45; assay: Cell cycle arrest in human MKN45 cells assessed as reduction in accumulation at G2/M phase at 2 uM to 5 uM after 48 hrs by propidium iodide staining based flow cytometry analysis; format: functional
[15] = test system: SOX2 promoter DNA; assay: Binding affinity to SOX2 promoter 5'-CTTTGTT-3' DNA in human SW620 cells assessed as upregulation of CDKN2B mRNA expression incubated for 48 hrs by qRT-PCR analysis; format: cell-based; conditions: SW-620
[16] = test system: SOX2 promoter DNA; assay: Binding affinity to SOX2 promoter 5'-CTTTGTT-3' DNA in mouse EG7 cells assessed as reduction in SOX2 mRNA expression incubated for 48 hrs by qRT-PCR analysis; format: cell-based
[17] = test system: SOX2 promoter DNA; assay: Binding affinity to SOX2 promoter 5'-CTTTGTT-3' DNA in human SW620 cells assessed as down regulation of Cyclin D1 gene expression at 2 uM incubated for 48 hrs by Cy3-labelled cRNA-based microarray analysis; format: cell-based; conditions: SW-620
[18] = test system: SOX2 promoter DNA; assay: Binding affinity to SOX2 promoter 5'-CTTTGTT-3' DNA in human PC3 cells assessed as reduction in SOX2 mRNA expression incubated for 48 hrs by qRT-PCR analysis; format: cell-based; conditions: PC-3
[19] = test system: MKN-45; assay: Cell cycle arrest in human MKN45 cells assessed as increase in accumulation at sub-G1/G1 phase at 2 uM to 5 uM after 48 hrs by propidium iodide staining based flow cytometry analysis; format: functional
[20] = test system: SOX2 promoter DNA; assay: Binding affinity to SOX2 promoter 5'-CTTTGTT-3' DNA in human SW620 cells assessed as down regulation of CDC42 mRNA expression incubated for 48 hrs by qRT-PCR analysis; format: cell-based; conditions: SW-620
[21] = test system: SOX2 promoter DNA; assay: Binding affinity to SOX2 promoter 5'-CTTTGTT-3' DNA in human MCF7 cells assessed as reduction in SOX2 mRNA expression incubated for 48 hrs by qRT-PCR analysis; format: cell-based
[22] = test system: SOX2 promoter DNA; assay: Binding affinity to SOX2 promoter 5'-CTTTGTT-3' DNA in mouse B16 cells assessed as reduction in SOX2 mRNA expression incubated for 48 hrs by qRT-PCR analysis; format: cell-based
[23] = test system: SOX2 promoter DNA; assay: Binding affinity to SOX2 promoter 5'-CTTTGTT-3' DNA in human SW620 cells assessed as down regulation of PROM1 gene expression at 2 uM incubated for 48 hrs by Cy3-labelled cRNA-based microarray analysis; format: cell-based; conditions: SW-620
[24] = test system: SOX2 promoter DNA; assay: Binding affinity to SOX2 promoter 5'-CTTTGTT-3' DNA in human SW620 cells assessed as downregulation SALL4 mRNA expression incubated for 48 hrs by qRT-PCR analysis; format: cell-based; conditions: SW-620
[25] = test system: SOX2 promoter DNA; assay: Binding affinity to SOX2 promoter 5'-CTTTGTT-3' DNA in human SW620 cells assessed as down regulation of POU5F1 gene expression at 2 uM incubated for 48 hrs by Cy3-labelled cRNA-based microarray analysis; format: cell-based; conditions: SW-620
[26] = test system: MKN-45; assay: Cytotoxicity against human MKN45 cells assessed as reduction in cell viability incubated for 48 hrs by MTT assay; format: functional, cell-based
[27] = test system: SOX2 promoter DNA; assay: Binding affinity to SOX2 promoter 5'-CTTTGTT-3' DNA in human SW620 cells assessed as reduction in SOX2 protein level by measuring SOX2 level at 5 uM incubated for 48 hrs by immunostaining based FACS analysis (reference value: 55.9%); format: cell-based; set-up: scale not given: the % may be the effect or the level left; conditions: SW-620
[28] = test system: SOX2 promoter DNA; assay: Binding affinity to SOX2 promoter 5'-CTTTGTT-3' DNA in human SW620 cells assessed as upregulation of APC mRNA expression incubated for 48 hrs by qRT-PCR analysis; format: cell-based; conditions: SW-620
[29] = test system: SOX2 promoter DNA; assay: Binding affinity to SOX2 promoter 5'-CTTTGTT-3' DNA in human SW620 cells assessed as down regulation of Cyclin D1 mRNA expression at 2 uM incubated for 48 hrs by qRT-PCR analysis; format: cell-based; conditions: SW-620
[30] = test system: SOX2 promoter DNA; assay: Binding affinity to SOX2 promoter 5'-CTTTGTT-3' DNA in human SW620 cells assessed as down regulation of GLI3 gene expression at 2 uM incubated for 48 hrs by Cy3-labelled cRNA-based microarray analysis; format: cell-based; conditions: SW-620
[31] = test system: SOX2 promoter DNA; assay: Binding affinity to SOX2 promoter 5'-CTTTGTT-3' DNA in human SW620 cells assessed as down regulation of DOCK1 mRNA expression at 2 uM incubated for 48 hrs by qRT-PCR analysis; format: cell-based; conditions: SW-620

CC(=O)Nc1cc(C(=O)Nc2cc(C(=O)Nc3cc(C(=O)NCCC(=O)Nc4cn(C)c(C(=O)Nc5cc(C(=O)NCCCC(=O)Nc6cc(C(=O)Nc7cc(C(=O)NCCC(=O)Nc8cc(C(=O)Nc9cc(C(=O)Nc%10cn(C)c(C(=O)NCCCN(C)C)n%10)n(C)c9)n(C)c8)n(C)c7)n(C)c6)n(C)c5)n4)n(C)c3)n(C)c2)n(C)c1
Activity [1]: Active
Activity [2]: Active
Activity [3]: Active
Activity [4]: Active
Activity [5]: Active
Activity [6]: Active
Activity [7]: Active
Activity [8]: Active
Activity [9]: Active
inhibition [10]: Dose-dependent effect
Activity [11]: Active
Activity [12]: Active
Activity [13]: Active
Activity [14]: Active
Activity [15]: Active
Activity [16]: Active
Activity [17]: Active
Activity [18]: Active
Activity [19]: Active
Activity [20]: Active
Activity [21]: Active
Activity [22]: Active
Activity [23]: Active
Activity [24]: Active
Activity [25]: Active
Activity [26]: Dose-dependent effect
Activity [27]: 28.1%
Activity [28]: Active
Activity [29]: Active
Activity [30]: Active
Activity [31]: Active

Reference: ChEMBL document CHEMBL4616595, “Targeted suppression of metastasis regulatory transcription factor SOX2 in various cancer cell lines using a sequence-specific designer pyrrole-imidazole polyamide” (Bioorg Med Chem, 2020)
